Source: US4115385A, “Antibacterial 3-(5-tetrazolyl) penam compounds” (Pfizer Inc., priority 1977, dated 1978)
Values after ≈ are worked out from the molar mass of the structure shown.

Test system: Streptococcus pyogenes
Assay: In vitro minimum inhibitory concentration (MIC) vs. Strep. pyogenes
Format: cell-based
Conditions: Examples
Protocol: The antibacterial penam compounds of the instant invention show activity against a wide variety of gram-positive and gram-negative bacteria. […] The broth is inoculated with the bacterial culture, and with the test antibiotic, and then it is incubated overnight. On the next day, the test is read visually. The minimum inhibitory concentration (MIC) is the lowest concentration of antibiotic which prevents turbidity, i.e., which prevents growth of the microorganism. In vitro activities of several of the penam compounds of the invention are presented later in this specification.
In Table II, the minimum inhibitory concentrations (MIC's) of compounds of formula I, wherein R^2 is hydrogen, against a strain of Streptococcus pyogenes, are reported; and in Table III, minimum inhibitory concentrations of compounds of formula I, wherein R^2 is hydrogen, against a strain of Staphylococcus aureus, are presented. Because of the tautomeric nature of such tetrazole derivatives, referred to hereinbefore,each of the preparations tested also contains some of the corresponding compound of formula II, wherein R^3 is hydrogen.

| Molecule | MIC against Strep. pyogenes [mg/L] |
| --- | --- |
| 6-(2-Phenylacetamido)-2,2-dimethyl-3-(1-pivaloyloxymethyl]-tetrazol-5-yl)penam and 6-(2-Phenylacetamido)-2,2-dimethyl-3-(2-[pivaloyloxylmethyl]tetrazol-5-yl)penam | 0.2 |

Same assay, conditions: Streptococcus pyogenes, read-out: MIC vs. Strep. pyogenes

| Molecule | MIC [mg/L] |
| --- | --- |
| CC1(C)S[C@@H]2[C@H](NC(=O)[C@H](NC(=O)c3cccnc3)c3ccccc3)C(=O)N2[C@H]1c1nnn[nH]1 | < 0.1 |
| CC1(C)S[C@@H]2[C@H](NC(=O)[C@H](NC(=O)c3ccc[nH]3)c3ccccc3)C(=O)N2[C@H]1c1nnn[nH]1 | < 0.1 |
| CC1(C)S[C@@H]2[C@H](NC(=O)[C@H](NC(=O)NC(=O)c3ccccc3)c3ccccc3)C(=O)N2[C@H]1c1nn[nH]n1 [2-(3-benzoylureido)-2-phenylacetyl] | < 0.1 |
| CC1(C)S[C@@H]2[C@H](NC(=O)[C@H](NC(=O)CCNC(=O)c3ccccc3)c3ccccc3)C(=O)N2[C@H]1c1nnn[nH]1 | < 0.1 |
| CC1(C)S[C@@H]2[C@H](NC(=O)[C@H](NC(=O)c3ccccc3)c3ccccc3)C(=O)N2[C@H]1c1nnn[nH]1 [D-2-(benzamido)-2-phenylacetyl] | < 0.1 |
| CCOC(=O)NCC(=O)N[C@@H](C(=O)N[C@@H]1C(=O)N2[C@@H]1SC(C)(C)[C@@H]2c1nnn[nH]1)c1ccccc1 | < 0.1 |
| CC1(C)S[C@@H]2[C@H](NC(=O)[C@H](NC(=O)CNC(=N)c3cc(I)cc(C#N)c3)c3ccccc3)C(=O)N2[C@H]1c1nnn[nH]1 | < 0.1 |
| CC1(C)S[C@@H]2[C@H](NC(=O)Oc3ccccc3)C(=O)N2[C@H]1c1nnn[nH]1 [phenoxycarbonyl] | < 0.1 |
| CC1(C)S[C@@H]2[C@H](NC(=O)[C@H](NC(=O)CNC(=N)c3ccncc3)c3ccccc3)C(=O)N2[C@H]1c1nnn[nH]1 [6-(D-2-[2-(4-pyridinecarboxamidino)acetamido]-2-phenylacetamido)-2,2-dimethyl-3-(5-tetrazolyl)penam] | < 0.1 |
| CC1(C)S[C@@H]2[C@H](NC(=O)[C@H](NC(=O)NC(=N)N)c3ccccc3)C(=O)N2[C@H]1c1nnn[nH]1 [D-2-(3-guanylureido)-2-phenylacetyl, 6-(D-2-[3-Guanylureido]-2-phenylacetamido)-2,2-dimethyl-3-(5-tetrazolyl)penam] | < 0.1 |
| CNC(=O)NCC(=O)N[C@@H](C(=O)N[C@@H]1C(=O)N2[C@@H]1SC(C)(C)[C@@H]2c1nnn[nH]1)c1ccccc1 | < 0.1 |
| Cc1ccc(NC(=O)N[C@@H](C(=O)N[C@@H]2C(=O)N3[C@@H]2SC(C)(C)[C@@H]3c2nnn[nH]2)c2ccccc2)cc1 [D-2-(3-[p-tolyl]ureido)-2-phenylacetyl] | < 0.1 |
| CC1(C)S[C@@H]2[C@H](NC(=O)[C@H](NC(=O)CNC(=N)N)c3ccccc3)C(=O)N2[C@H]1c1nn[nH]n1 | < 0.1 |
| CC1(C)S[C@@H]2[C@H](NC(=O)[C@H](NC(=O)CNC(=O)NC(=O)c3ccccc3)c3ccccc3)C(=O)N2[C@H]1c1nnn[nH]1 | < 0.1 |
| CCSCC(=O)N[C@@H](C(=O)N[C@@H]1C(=O)N2[C@@H]1SC(C)(C)[C@@H]2c1nnn[nH]1)c1ccccc1 | < 0.1 |
| CC1(C)S[C@@H]2[C@H](NC(=O)[C@H](NC(=O)CNC(=N)c3cc[n+]([O-])cc3)c3ccccc3)C(=O)N2[C@H]1c1nnn[nH]1 | < 0.1 |
| CC1(C)S[C@@H]2[C@H](NC(=O)[C@H](NC(=O)NC(=O)c3cccnc3)c3ccccc3)C(=O)N2[C@H]1c1nn[nH]n1 | 0.1 (≈ 0.192 µM) |
| CC1(C)S[C@@H]2[C@H](NC(=O)[C@H](NC(=O)c3cccs3)c3ccccc3)C(=O)N2[C@H]1c1nnn[nH]1 | < 0.1 |
| CC1(C)S[C@@H]2[C@H](NC(=O)[C@H](NC(=O)CN)c3ccc(O)cc3)C(=O)N2[C@H]1c1nnn[nH]1 [6-(D-2-[2-aminoacetamido]-2-[4-hydroxyphenyl]acetamido)-2,2-dimethyl-3-(5-tetrazolyl)penam] | < 0.1 |
| CN(C)C=N[C@@H](C(=O)N[C@@H]1C(=O)N2[C@@H]1SC(C)(C)[C@@H]2c1nnn[nH]1)c1ccccc1 [6-(D-2-[Dimethylaminomethyleneamino]-2-phenylacetamido)-2,2-dimethyl-3-(5-tetrazolyl)penam] | < 0.1 |
| Cc1cc(C(=O)NC(=O)N[C@@H](C(=O)N[C@@H]2C(=O)N3[C@@H]2SC(C)(C)[C@@H]3c2nn[nH]n2)c2ccccc2)on1 | < 0.1 |

Same assay, conditions: Streptococcus pyogenes; Table II; two-fold serial dilution, Brain-Heart Infusion broth, overnight; read-out: MIC vs. Strep. pyogenes

| Molecule | MIC [mg/L] |
| --- | --- |
| C/C(CN)=C(\C(=O)NC1C(=O)N2C(c3nnn[nH]3)C(C)(C)S[C@H]12)c1ccccc1 (some centres unmarked) [3-aminomethyl-2-phenylisocrotonoyl, 6-(3-Aminomethyl-2-phenylisocrotonamido)-2,2-dimethyl-3-(5-tetrazolyl)penam] | 12.5 (≈ 30.2 µM) |
| CC1(C)S[C@@H]2[C@H](NC(=O)C(Cc3ccccc3)NC(=N)c3ccncc3)C(=O)N2[C@H]1c1nnn[nH]1 (some centres unmarked) | 0.2 (≈ 0.407 µM) |
| CC1(C)S[C@@H]2[C@H](NC(=O)[C@H](N)c3ccc(N)cc3)C(=O)N2[C@H]1c1nnn[nH]1 [D-2-amino-(4-aminophenyl)acetyl, 6-(D-2-Amino-2-[4-aminophenyl]acetamido)-2,2-dimethyl-3-(5-tetrazolyl)penam] | 0.39 (≈ 1 µM) |
| CC1(C)S[C@@H]2[C@H](NC(=O)[C@H](NC(=O)CN=[N+]=[N-])c3ccccc3)C(=O)N2[C@H]1c1nnn[nH]1 [D-2-(2-azicoacetamido)-2-phenylacetyl] | 0.2 (≈ 0.438 µM) |
| CC1(C)S[C@@H]2[C@H](NC(=O)[C@H](NC(=O)Cc3ccc(Br)cc3)c3ccccc3)C(=O)N2[C@H]1c1nnn[nH]1 | 0.2 (≈ 0.351 µM) |
| CC1(C)S[C@@H]2[C@H](NC(=O)[C@H](NC(=O)CSC(=N)N)c3ccccc3)C(=O)N2[C@H]1c1nn[nH]n1 | 0.004 (≈ 0.00817 µM) |
| CC1(C)S[C@@H]2[C@H](NC(=O)[C@H](NC(=O)CNC(=O)NC(=N)NCc3ccncc3)c3ccccc3)C(=O)N2[C@H]1c1nn[nH]n1 | 0.004 (≈ 0.00659 µM) |
| CC1(C)S[C@@H]2[C@H](NC(=O)[C@H](NC(=O)CNC(=O)OCc3ccccc3)c3ccccc3)C(=O)N2[C@H]1c1nnn[nH]1 | 0.39 (≈ 0.691 µM) |
| CC1(C)S[C@@H]2[C@H](NC(=O)[C@@H](N)c3ccc(O)cc3)C(=O)N2[C@H]1c1nnn[nH]1 [L-2-amino-2-(p-hydroxyphenyl)acetyl] | < 0.1 |
| CC1(C)S[C@@H]2[C@H](NC(=O)[C@H](NC(=O)Cc3ccc(NC(=N)N)cc3)c3ccccc3)C(=O)N2[C@H]1c1nn[nH]n1 | 1.56 (≈ 2.84 µM) |
| CC1(C)S[C@@H]2[C@H](NC(=O)[C@H](NC(=O)C(=O)c3ccccc3)c3ccccc3)C(=O)N2[C@H]1c1nnn[nH]1 [D-2-(benzoylformamido)-2-phenylacetyl] | 25 (≈ 49.5 µM) |
| Cc1onc(-c2ccccc2Cl)c1C(=O)N[C@@H]1C(=O)N2[C@@H]1SC(C)(C)[C@@H]2c1nnn[nH]1 [6-(3-[2-Chlorophenyl]-5-methyl-4-isoxazolecarboxamido)-2,2-dimethyl-3-(5-tetrazolyl)penam] | < 0.1 |
| CN=C(NC)SCC(=O)N[C@@H](C(=O)N[C@@H]1C(=O)N2[C@@H]1SC(C)(C)[C@@H]2c1nn[nH]n1)c1ccccc1 [6-(D-2-[N,N'-dimethylamidinothio)acetamido]-2-phenylacetamido)-2,2-dimethyl-3-(5-tetrazolyl)penam] | 0.004 (≈ 0.00773 µM) |
| CC1(C)S[C@@H]2[C@H](NC(=O)CSCc3ccccc3)C(=O)N2[C@H]1c1nnn[nH]1 [2-(benzylthio)acetyl] | 0.2 (≈ 0.494 µM) |

Same assay, conditions: Table II; two-fold serial dilution, Brain-Heart Infusion broth, overnight

| Molecule | MIC vs. Strep. pyogenes [mg/L] |
| --- | --- |
| CC1(C)SC2C(NC(=O)[C@@H](c3ccccc3)S(N)(=O)=O)C(=O)N2C1c1nnn[nH]1 (stereo partly drawn) [2-sulfamoyl-2-phenylacetyl, 6-(D-2-Sulfamoyl-2-phenylacetamido)-2,2-dimethyl-3-(5-tetrazolyl)penam] | < 0.1 |

Same assay, conditions: Table IV

| Molecule | MIC vs. Strep. pyogenes [mg/L] |
| --- | --- |
| 6-(2-Phenylacetamido)-2,2-dimethyl-3-(1-pivaloyloxymethyl]-tetrazol-5-yl)penam and 6-(2-Phenylacetamido)-2,2-dimethyl-3-(2-[pivaloyloxylmethyl]tetrazol-5-yl)penam | 0.2 |
